# Measured values as given in BindingDB's records for doi:10.1016/j.bmcl.2018.11.048 (Advinus Therapeutics, 2019).
# Target: T1, Fatty-acid amide hydrolase 1 (Homo sapiens, UniProt O00519)
# T1 sequence (O00519 whole entry): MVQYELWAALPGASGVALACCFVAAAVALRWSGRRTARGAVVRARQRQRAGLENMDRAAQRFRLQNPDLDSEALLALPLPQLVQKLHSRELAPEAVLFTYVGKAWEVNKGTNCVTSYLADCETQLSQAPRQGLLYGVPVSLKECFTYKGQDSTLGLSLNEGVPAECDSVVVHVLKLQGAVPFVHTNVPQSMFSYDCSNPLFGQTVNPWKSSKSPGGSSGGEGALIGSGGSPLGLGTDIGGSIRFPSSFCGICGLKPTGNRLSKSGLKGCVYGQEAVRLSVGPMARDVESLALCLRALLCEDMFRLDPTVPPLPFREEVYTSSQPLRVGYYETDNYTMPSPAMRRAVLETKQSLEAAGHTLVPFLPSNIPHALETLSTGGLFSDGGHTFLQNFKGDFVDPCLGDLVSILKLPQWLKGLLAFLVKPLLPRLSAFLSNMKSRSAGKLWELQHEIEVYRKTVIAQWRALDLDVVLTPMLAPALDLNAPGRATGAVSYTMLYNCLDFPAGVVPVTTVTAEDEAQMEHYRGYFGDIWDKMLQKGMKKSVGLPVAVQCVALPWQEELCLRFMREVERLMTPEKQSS
# Test: Inhibition of human transmembrane domain deficient FFAH expressed in Escherichia coli using AAMCA as substrate incubated for 1 min measured for 50 mins by fluorescence assay
row,SMILES,IC50
1,"CCOC(=O)Cn1nc2c(c1C(C)C)C(c1ccc(Cl)cc1C)N(c1cc(Cl)ccc1C)C2=O (stereo unspecified) [US9682953, 20.A-1]",2.2 nM
2,"Cc1cc(C(=O)NC2CCC(=Cc3cccc(Oc4ccc(C(F)(F)F)cn4)c3)CC2)cnc1N (stereo unspecified) [US9682953, 20.A-5]",3 nM
3,"O=C(NC1CCC(=Cc2cccc(Oc3ccc(C(F)(F)F)cn3)c2)CC1)c1cn[nH]c1 (stereo unspecified) [US9682953, 20.A-12]",2.6 nM
4,"O=C(NC1CCC(=Cc2cccc(Oc3ccc(C(F)(F)F)cn3)c2)CC1)c1cnc2[nH]ccc2c1 (stereo unspecified) [US9682953, 20.A-13]",2.2 nM
5,"O=C(NC1CCC(=Cc2cccc(Oc3ccc(C(F)(F)F)cn3)c2)CC1)c1cncnc1 (stereo unspecified) [US9682953, 20.A-20]",2.6 nM

# Target: T2, Fatty-acid amide hydrolase 1 [30-579] (Rattus norvegicus, UniProt P97612)
# T2 construct: 30-579
# T2 sequence (P97612 whole entry): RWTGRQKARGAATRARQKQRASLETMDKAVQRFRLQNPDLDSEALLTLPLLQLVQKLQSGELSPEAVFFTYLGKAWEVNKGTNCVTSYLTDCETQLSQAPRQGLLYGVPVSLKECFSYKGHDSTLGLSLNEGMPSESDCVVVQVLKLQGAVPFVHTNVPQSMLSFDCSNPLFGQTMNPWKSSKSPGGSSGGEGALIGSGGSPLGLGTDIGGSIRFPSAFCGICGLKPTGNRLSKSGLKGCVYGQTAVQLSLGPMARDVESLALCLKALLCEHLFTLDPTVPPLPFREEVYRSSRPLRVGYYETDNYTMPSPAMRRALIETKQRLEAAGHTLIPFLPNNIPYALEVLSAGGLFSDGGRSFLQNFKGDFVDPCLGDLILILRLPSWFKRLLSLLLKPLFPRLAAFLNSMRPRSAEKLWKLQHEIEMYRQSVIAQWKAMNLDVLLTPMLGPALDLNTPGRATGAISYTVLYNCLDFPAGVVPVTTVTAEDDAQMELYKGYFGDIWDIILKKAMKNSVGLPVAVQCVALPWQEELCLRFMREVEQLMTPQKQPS
# Test: Inhibition of rat FFAH expressed in Escherichia coli using AAMCA as substrate incubated for 1 min measured for 50 mins by fluorescence assay
row,SMILES,IC50
1,"Cc1cc(C(=O)NC2CCC(=Cc3cccc(Oc4ccc(C(F)(F)F)cn4)c3)CC2)cnc1N (stereo unspecified) [US9682953, 20.A-5]",29 nM
